The values that follow come from patent publication US10336702B2, “Pharmaceutically active compounds” (BERGENBIO ASA, priority 2015, dated 2019).

One test deals with T1, p-Akt2 in WM115 cells (Homo sapiens, UniProt P31751).
T1 construct: SureFire assays to detect cellular p-Akt1, p-Akt2 and p-Akt3 levels in WM115 cells (Akt2/3) and LNCaP cells (Akt1); endogenous in cells; host or cells: WM115 (ECACC 91061232), insulin-stimulated
Nature of the test: Phospho-Akt cellular SureFire assay, p-Akt2 in WM115 cells. The class given is cell-based. The following applies: insulin stimulated, read-out: Biological Assay 2 IC50 (nM) Akt2 WM115. The gist of the method: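 WM115 cells in 0.1% FBS medium stimulated 10 min with 100 nM insulin, then exposed to compound for 15 min at 37° C (0.3% DMSO final). Lysates assayed by AlphaScreen with anti-(pThr308)Akt and isoform-specific total Akt2 antibodies; IC50 from 4-parameter fit.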

The next test addresses T2, Akt3 (Homo sapiens, UniProt Q9Y243).
T2 construct: unspecified tag, removed (detagged) (cleaved yes); purchased SignalChem and Proteros (Akt3); Merck Millipore (PDK1) 14-452 (PDK1); none given for Akt3
Nature of the test: Akt activation assay (PDK1-mediated activation, LANCE Ultra crosstide TR-FRET), Akt3. The following applies: read-out: Biological Assay 1 IC50 (nM) Akt3. The class given is biochemical. Summed up: (§1)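 Compound + Akt preinc.; start w/ PDK1 5 nM, DOPS/DOPC 5.5 μM each, PIP3 0.55 μM, ATP 100 μM, Ulight-crosstide 100 nM; HEPES pH 7.5, 10 mM MgCl2, 2 mM DTT, 1% DMSO; 30 min; EDTA stop; Eu-Ab TR-FRET; 4-PL IC50.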
For orientation: Time-resolved FRET reads energy transfer from a long-lived donor to a nearby acceptor.

In another test the target is T3, p-Akt3 in WM115 cells (Homo sapiens, UniProt Q9Y243).
T3 construct: SureFire assays to detect cellular p-Akt1, p-Akt2 and p-Akt3 levels in WM115 cells (Akt2/3) and LNCaP cells (Akt1); endogenous in cells; host or cells: WM115 (ECACC 91061232), insulin-stimulated
Briefly: Phospho-Akt cellular SureFire assay, p-Akt3 in WM115 cells. The following applies: insulin stimulated, read-out: Biological Assay 2 IC50 (nM) Akt3 WM115. The class given is cell-based. Summed up:
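WM115 cells were serum-reduced to 0.1% FBS, stimulated with 100 nM insulin for 10 min, then exposed to compound (0.3% DMSO) for 15 min at 37 °C. Lysates were assayed for Thr308-phosphorylated Akt3 by AlphaScreen SureFire using an isoform-specific total Akt3 capture antibody. IC50 was derived from a 4-parameter fit.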

A further test concerns the target T4, Akt1 (Homo sapiens, UniProt P31749).
T4 construct: unspecified tag, removed (detagged) (cleaved yes); purchased SignalChem and Proteros (Akt1); Merck Millipore (PDK1) 14-452 (PDK1); none given for Akt1
Nature of the test: Akt activation assay (PDK1-mediated activation, LANCE Ultra crosstide TR-FRET), Akt1. The following applies: read-out: Biological Assay 1 IC50 (nM) Akt1. The class given is biochemical. The gist of the method:
as §1

For the next test, the target named is T5, p-Akt1 in LNCaP cells (Homo sapiens, UniProt P31749).
T5 construct: SureFire assays to detect cellular p-Akt1, p-Akt2 and p-Akt3 levels in WM115 cells (Akt2/3) and LNCaP cells (Akt1); endogenous in cells; host or cells: LNCaP (ECACC 89110211)
Nature of the test: Phospho-Akt cellular SureFire assay, p-Akt1 in LNCaP cells. The class given is cell-based. The following applies: read-out: Biological Assay 2 IC50 (nM) Akt1 LNCaP. The gist of the method: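 LNCaP cells, 5×10^4/well, seeded overnight, switched to 0.1% FBS medium without insulin stimulation, then compound for 15 min at 37 °C (0.3% DMSO). Lysate p-Akt1 (pThr308) by AlphaScreen SureFire, two 2 h incubations at room temperature; IC50 by 4-parameter fit.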

The next test has as its target T6, Akt2 (Homo sapiens, UniProt P31751).
T6 construct: unspecified tag, removed (detagged) (cleaved yes); purchased SignalChem and Proteros (Akt2); Merck Millipore (PDK1) 14-452 (PDK1); none given for Akt2
Briefly: Akt activation assay (PDK1-mediated activation, LANCE Ultra crosstide TR-FRET), Akt2. The class given is biochemical. The following applies: read-out: Biological Assay 1 IC50 (nM) Akt2. The gist of the method: as §1

T3 sequence (Q9Y243 whole entry): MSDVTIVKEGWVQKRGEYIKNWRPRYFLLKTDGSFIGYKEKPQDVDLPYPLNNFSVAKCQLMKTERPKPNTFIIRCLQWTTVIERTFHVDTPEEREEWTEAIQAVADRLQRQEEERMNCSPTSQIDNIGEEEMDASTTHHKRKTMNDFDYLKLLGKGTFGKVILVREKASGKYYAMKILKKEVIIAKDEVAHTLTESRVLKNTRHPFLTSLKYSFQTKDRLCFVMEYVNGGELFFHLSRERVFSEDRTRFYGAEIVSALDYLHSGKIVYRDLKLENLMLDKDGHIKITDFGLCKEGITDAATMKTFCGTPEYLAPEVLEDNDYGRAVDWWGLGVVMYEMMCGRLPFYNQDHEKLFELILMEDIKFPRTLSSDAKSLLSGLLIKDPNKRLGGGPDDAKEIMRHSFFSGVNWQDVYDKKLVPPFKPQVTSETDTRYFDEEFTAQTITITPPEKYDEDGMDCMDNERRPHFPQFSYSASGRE
T2 sequence (Q9Y243 whole entry): as above
T5 sequence (P31749 whole entry): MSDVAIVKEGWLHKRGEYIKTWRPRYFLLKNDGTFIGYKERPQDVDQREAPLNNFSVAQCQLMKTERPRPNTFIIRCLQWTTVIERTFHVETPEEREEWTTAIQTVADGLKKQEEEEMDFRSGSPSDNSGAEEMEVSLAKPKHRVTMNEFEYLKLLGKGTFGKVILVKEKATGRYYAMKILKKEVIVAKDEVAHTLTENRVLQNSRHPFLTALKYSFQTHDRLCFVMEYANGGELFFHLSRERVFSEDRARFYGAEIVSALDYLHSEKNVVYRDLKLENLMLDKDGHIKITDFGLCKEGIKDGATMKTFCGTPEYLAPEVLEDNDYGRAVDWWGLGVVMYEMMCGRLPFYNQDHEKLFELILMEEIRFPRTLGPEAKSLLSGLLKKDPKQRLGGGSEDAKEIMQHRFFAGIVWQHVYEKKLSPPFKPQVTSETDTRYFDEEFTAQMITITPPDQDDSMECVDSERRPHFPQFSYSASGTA
T4 sequence (P31749 whole entry): as above
T1 sequence (P31751 whole entry): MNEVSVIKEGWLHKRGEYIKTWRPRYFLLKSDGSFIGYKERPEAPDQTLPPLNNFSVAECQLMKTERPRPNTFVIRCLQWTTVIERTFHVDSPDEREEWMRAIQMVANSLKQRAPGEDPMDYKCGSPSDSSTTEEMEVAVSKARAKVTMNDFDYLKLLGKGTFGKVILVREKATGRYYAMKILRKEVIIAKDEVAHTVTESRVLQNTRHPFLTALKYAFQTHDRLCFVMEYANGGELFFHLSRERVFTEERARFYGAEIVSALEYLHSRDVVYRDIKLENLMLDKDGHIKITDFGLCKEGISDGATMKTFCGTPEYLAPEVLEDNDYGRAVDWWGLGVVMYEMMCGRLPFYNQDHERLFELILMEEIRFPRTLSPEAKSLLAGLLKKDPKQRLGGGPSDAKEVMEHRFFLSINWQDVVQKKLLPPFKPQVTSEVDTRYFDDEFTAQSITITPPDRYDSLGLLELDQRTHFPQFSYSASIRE
T6 sequence (P31751 whole entry): as above

Regarding `CCN(C(=O)C1CC1)[C@H]1CC[C@H](CC(=O)Nc2cc(-c3ccccc3)c(-c3ccc([C@]4(N)C[C@](C)(O)C4)cc3)nn2)CC1` [Example 114, N-(trans-4-(2-((6-(4-(trans-1-amino-3-hydroxy-3-methylcyclobutyl)phenyl)-5-phenylpyridazin-3-yl)amino)-2-oxoethyl)cyclohexyl)-N-ethylcyclopropanecarboxamide], the half-maximal inhibitory concentration (IC50) was 440 nM on p-Akt2 in WM115 cells; 7 nM on Akt3; 5 nM on p-Akt3 in WM115 cells; greater than 23000 nM at Akt1; 3300 nM on p-Akt1 in LNCaP cells; 110 nM on Akt2.
Consider `CC(=O)N(CC(F)(F)F)[C@H]1CC[C@H](CC(=O)Nc2cc(-c3ccccc3)c(-c3ccc([C@]4(N)C[C@](C)(O)C4)cc3)cn2)CC1` [Example 117, N-(5-(4-(trans-1-amino-3-hydroxy-3-methylcyclobutyl)phenyl)-4-phenylpyridin-2-yl)-2-(trans-4-(N-(2,2,2-trifluoroethyl)acetamido)cyclohexyl)acetamide], for which the IC50 was 980 nM on p-Akt2 in WM115 cells; 42 nM at Akt3; 33 nM at p-Akt3 in WM115 cells; greater than 24000 nM on Akt1; 12000 nM on p-Akt1 in LNCaP cells; 290 nM on Akt2.
Turning to `CCN(C(=O)OC)[C@H]1CC[C@H](CC(=O)Nc2cnc(-c3ccc([C@]4(N)C[C@](C)(O)C4)cc3)c(-c3ccccc3)c2)CC1` [Example 118, Methyl (trans-4-(2-((6-(4-(trans-1-amino-3-hydroxy-3-methylcyclobutyl)phenyl)-5-phenylpyridin-3-yl)amino)-2-oxoethyl)cyclohexyl) (ethyl)carbamate], the IC50 on p-Akt2 in WM115 cells is 230 nM; on Akt3, 5 nM; at p-Akt3 in WM115 cells, 6 nM; on Akt1, 8500 nM; at p-Akt1 in LNCaP cells it was 1600 nM; on Akt2, 110 nM.
As for `CC(=O)N(C(C)C)[C@H]1CC[C@H](CC(=O)Nc2cnc(-c3ccc([C@]4(N)C[C@](C)(O)C4)cc3)c(-c3ccccc3)c2)CC1` [Example 120, N-(6-(4-(trans-1-amino-3-hydroxy-3-methylcyclobutyl)phenyl)-5-phenylpyridin-3-yl)-2-(trans-4-(N-isopropylacetamido)cyclohexyl)acetamide], the IC50 was found to be 350 nM at p-Akt2 in WM115 cells; 7 nM at Akt3; 15 nM on p-Akt3 in WM115 cells; 8600 nM on Akt1; 1300 nM on p-Akt1 in LNCaP cells; 65 nM at Akt2.
Take `CCC(=O)N(C(C)C)[C@H]1CC[C@H](CC(=O)Nc2cnc(-c3ccc([C@]4(N)C[C@](C)(O)C4)cc3)c(-c3ccccc3)c2)CC1` [Example 122, N-(trans-4-(2-((6-(4-(trans-1-amino-3-hydroxy-3-methylcyclobutyl)phenyl)-5-phenylpyridin-3-yl)amino)-2-oxoethyl)cyclohexyl)-N-isopropylpropionamide]: the IC50 on p-Akt2 in WM115 cells worked out at 390 nM; on Akt3 it was 8 nM; at p-Akt3 in WM115 cells it was 13 nM; on Akt1 it was 6100 nM; at p-Akt1 in LNCaP cells, 1400 nM; at Akt2, 87 nM.
Consider `CC(=O)N(C)[C@H]1CC[C@H](CC(=O)Nc2cnc(-c3ccc(C4(N)CC(C)(O)C4)c(F)c3)c(-c3ccccc3)c2)CC1` (stereo partly drawn) [Example 124, N-(6-(4-(trans-1-amino-3-hydroxy-3-methylcyclobutyl)-3-fluorophenyl)-5-phenylpyridin-3-yl)-2-(trans-4-(N-methylacetamido)cyclohexyl)acetamide], for which the IC50 on p-Akt2 in WM115 cells is 2400 nM; on Akt3 it was 36 nM; at p-Akt3 in WM115 cells it was 27 nM; on Akt1 it was greater than 21000 nM; at p-Akt1 in LNCaP cells, 10000 nM; at Akt2, 880 nM.
For `CCC(=O)N(C)[C@H]1CC[C@H](CC(=O)Nc2cc(-c3ccsc3)c(-c3ccc([C@]4(N)C[C@H](F)C4)cc3)nn2)CC1` [Example 125], the half-maximal inhibitory concentration (IC50) at p-Akt2 in WM115 cells is 3000 nM; at Akt3, 26 nM; on p-Akt3 in WM115 cells, 22 nM; at Akt1 it was greater than 30000 nM; on p-Akt1 in LNCaP cells, greater than 30000 nM; on Akt2 it was 1500 nM.
With `CCC(=O)N(C)[C@H]1CC[C@H](CC(=O)Nc2cc(-c3ccccc3)c(-c3ccc([C@]4(N)C[C@](C)(O)C4)c(F)c3)nn2)CC1` [Example 126, N-(trans-4-(2-((6-(4-(trans-1-amino-3-hydroxy-3-methylcyclobutyl)-3-fluorophenyl)-5-phenylpyridazin-3-yl)amino)-2-oxoethyl)cyclohexyl)-N-methylpropionamide], the IC50 is 3300 nM at p-Akt2 in WM115 cells; 31 nM on Akt3; 32 nM on p-Akt3 in WM115 cells; greater than 30000 nM at Akt1; greater than 30000 nM on p-Akt1 in LNCaP cells; 3000 nM on Akt2.
On to `CC(=O)N(C)[C@H]1CC[C@H](CC(=O)Nc2cc(-c3ccccc3)c(-c3ccc([C@]4(N)C[C@](C)(O)C4)c(F)c3)nn2)CC1` [Example 127, N-(6-(4-(trans-1-amino-3-hydroxy-3-methylcyclobutyl)-3-fluorophenyl)-5-phenylpyridazin-3-yl)-2-(trans-4-(N-methylacetamido)cyclohexyl)acetamide], for which the 50% inhibitory concentration (IC50) at p-Akt2 in WM115 cells was 2900 nM; on Akt3, 31 nM; at p-Akt3 in WM115 cells, 42 nM; at Akt1, greater than 25000 nM; at p-Akt1 in LNCaP cells, greater than 30000 nM; at Akt2, 2900 nM.
Turning to `COCCN(C)[C@H]1CC[C@H](CC(=O)Nc2cc(-c3ccccc3)c(-c3ccc([C@]4(N)C[C@](C)(O)C4)cc3)cn2)CC1` [Example 128, N-(5-(4-(trans-1-amino-3-hydroxy-3-methylcyclobutyl)phenyl)-4-phenylpyridin-2-yl)-2-(trans-4-((2-methoxyethyl)(methyl)amino)cyclohexyl)acetamide], the IC50 at p-Akt2 in WM115 cells was 810 nM; on Akt3, 110 nM; on p-Akt3 in WM115 cells, 93 nM; at Akt1 it was greater than 18000 nM; on p-Akt1 in LNCaP cells, 5500 nM; on Akt2, 370 nM.
In the case of `CCN(C(=O)OC)[C@H]1CC[C@H](CC(=O)Nc2cc(-c3ccccc3)c(-c3ccc([C@]4(N)C[C@](C)(O)C4)cc3)nn2)CC1` [Example 129, Methyl (trans-4-(2-((6-(4-(trans-1-amino-3-hydroxy-3-methylcyclobutyl)phenyl)-5-phenylpyridazin-3-yl)amino)-2-oxoethyl)cyclohexyl) (ethyl)carbamate], the IC50 was 620 nM at p-Akt2 in WM115 cells; 7 nM on Akt3; 7 nM at p-Akt3 in WM115 cells; 11000 nM on Akt1; 2000 nM on p-Akt1 in LNCaP cells; 190 nM at Akt2.
Consider `COC(=O)N(C)[C@H]1CC[C@H](CC(=O)Nc2cnc(-c3ccc(C4(N)CCC4)cc3)c(-c3ccccc3)c2)CC1` [Example A1, Methyl (trans-4-(2-((6-(4-(1-aminocyclobutyl)phenyl)-5-phenylpyridin-3-yl)amino)-2-oxoethyl)cyclohexyl)(methyl)carbamate], for which the IC50 at p-Akt2 in WM115 cells is 2800 nM; at Akt3 it was 110 nM; at p-Akt3 in WM115 cells, 130 nM; on Akt1, 4000 nM; on p-Akt1 in LNCaP cells, greater than 16000 nM; at Akt2 it was 420 nM.

Usually IC50 stands for the concentration at which inhibition is half-maximal.
